Columns and labels:
[1] = biological target: T1, Dual specificity calcium/calmodulin-dependent 3',5'-cyclic nucleotide phosphodiesterase 1A (Homo sapiens, UniProt P54750); assay: Inhibition of PDE1A (unknown origin) using [3H]-cAMP as substrate incubated for 1 hr by SPA assay
[2] = biological target: T2, Dual specificity calcium/calmodulin-dependent 3',5'-cyclic nucleotide phosphodiesterase 1B (Homo sapiens, UniProt Q01064); assay: Inhibition of PDE1B (unknown origin) using [3H]-cAMP as substrate incubated for 1 hr by SPA assay
[3] = biological target: Dual specificity calcium/calmodulin-dependent 3',5'-cyclic nucleotide phosphodiesterase 1C (Homo sapiens, UniProt Q14123); assay: Inhibition of PDE1C (unknown origin) using [3H]-cAMP as substrate incubated for 1 hr by SPA assay
[4] = biological target: Phosphodiesterase 4 (Homo sapiens) (UniProt P27815+Q08499+Q07343+Q08493); assay: Inhibition of PDE4 (unknown origin) at 10 uM relative to control; type: protein assay
[5] = Inhibition of PDE1 (unknown origin); set-up: species or system Homo sapiens
[6] = Inhibition of PDE3 (unknown origin) by fluorescent based assay; set-up: species or system Homo sapiens
[7] = biological target: cGMP-specific 3',5'-cyclic phosphodiesterase (Homo sapiens, UniProt O76074); assay: Inhibition of PDE5 (unknown origin)
[8] = biological target: T2, Dual specificity calcium/calmodulin-dependent 3',5'-cyclic nucleotide phosphodiesterase 1B; assay: Inhibition of PDE1B (unknown origin) using [3H]-cGMP substrate incubated for 15 mins by liquid scintillation counting method
[9] = Metabolic stability in rat liver microsomes assessed as half life; type: ADME, Microsome
[10] = biological target: T1, Dual specificity calcium/calmodulin-dependent 3',5'-cyclic nucleotide phosphodiesterase 1A; assay: Inhibition of PDE1A3 (unknown origin)
[11] = biological target: T2, Dual specificity calcium/calmodulin-dependent 3',5'-cyclic nucleotide phosphodiesterase 1B; assay: Inhibition of PDE1B (unknown origin)
[12] = biological target: cGMP-inhibited 3',5'-cyclic phosphodiesterase 3A (Homo sapiens, UniProt Q14432); assay: Inhibition of PDE3A (unknown origin)
[13] = biological target: High affinity 3',5'-cyclic-AMP phosphodiesterase 7A (Homo sapiens, UniProt Q13946); assay: Inhibition of PDE7A (unknown origin)
[14] = biological target: High affinity cGMP-specific 3',5'-cyclic phosphodiesterase 9A (Homo sapiens, UniProt O76083); assay: Inhibition of PDE9A (unknown origin)
[15] = Binding affinity to PDE1 (unknown origin) assessed as inhibition constant; set-up: species or system Homo sapiens
[16] = Inhibition of PDE9 (unknown origin) by fluorescent based assay; set-up: species or system Homo sapiens
[17] = biological target: 3',5'-cyclic-AMP phosphodiesterase 4D (Homo sapiens, UniProt Q08499); assay: Inhibition of PDE4D (unknown origin)
[18] = biological target: cGMP-dependent 3',5'-cyclic phosphodiesterase (Homo sapiens, UniProt O00408); assay: Inhibition of full-length recombinant human PDE2A using [3H]-cGMP as substrate incubated for 10 mins by SPA assay
[19] = biological target: High affinity cAMP-specific and IBMX-insensitive 3',5'-cyclic phosphodiesterase 8A (Homo sapiens, UniProt O60658); assay: Inhibition of full-length recombinant human PDE8A using [3H]-cAMP as substrate incubated for 10 mins by SPA assay
[20] = biological target: cGMP-inhibited 3',5'-cyclic phosphodiesterase 3B (Homo sapiens, UniProt Q13370); assay: Binding affinity to PDE3B (unknown origin) using [3H]cAMP as substrate assessed as inhibition constant incubated for 1 hrs by […] assay

T1 sequence (P54750 whole entry): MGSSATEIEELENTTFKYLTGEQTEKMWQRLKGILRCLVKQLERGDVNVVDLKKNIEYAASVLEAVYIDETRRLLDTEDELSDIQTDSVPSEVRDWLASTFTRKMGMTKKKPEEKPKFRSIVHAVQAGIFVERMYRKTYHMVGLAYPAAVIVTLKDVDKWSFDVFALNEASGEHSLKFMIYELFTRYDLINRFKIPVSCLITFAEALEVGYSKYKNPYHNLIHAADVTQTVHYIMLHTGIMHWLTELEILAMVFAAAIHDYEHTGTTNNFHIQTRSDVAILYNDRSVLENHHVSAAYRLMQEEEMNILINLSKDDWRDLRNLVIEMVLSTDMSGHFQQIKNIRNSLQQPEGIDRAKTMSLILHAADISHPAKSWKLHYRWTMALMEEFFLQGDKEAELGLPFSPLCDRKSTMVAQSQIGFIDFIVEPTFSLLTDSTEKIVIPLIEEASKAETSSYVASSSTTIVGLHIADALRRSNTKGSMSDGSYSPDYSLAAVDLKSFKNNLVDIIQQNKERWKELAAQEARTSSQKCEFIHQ
T2 sequence (Q01064 whole entry): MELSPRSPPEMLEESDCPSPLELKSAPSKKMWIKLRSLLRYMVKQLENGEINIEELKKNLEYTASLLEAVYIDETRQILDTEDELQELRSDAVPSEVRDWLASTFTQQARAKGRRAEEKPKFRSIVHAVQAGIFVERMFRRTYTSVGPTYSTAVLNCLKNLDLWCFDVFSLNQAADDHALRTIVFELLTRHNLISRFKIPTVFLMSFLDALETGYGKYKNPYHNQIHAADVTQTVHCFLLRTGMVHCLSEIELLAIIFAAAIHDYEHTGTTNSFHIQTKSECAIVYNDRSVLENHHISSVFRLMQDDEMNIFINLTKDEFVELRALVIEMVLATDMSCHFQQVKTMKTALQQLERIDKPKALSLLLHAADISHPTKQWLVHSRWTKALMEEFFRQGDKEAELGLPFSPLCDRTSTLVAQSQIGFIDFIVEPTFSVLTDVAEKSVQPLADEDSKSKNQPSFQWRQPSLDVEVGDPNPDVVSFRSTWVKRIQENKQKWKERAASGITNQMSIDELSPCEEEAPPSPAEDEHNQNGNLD
Sequence of Dual specificity calcium/calmodulin-dependent 3',5'-cyclic nucleotide phosphodiesterase 1C (Q14123 whole entry): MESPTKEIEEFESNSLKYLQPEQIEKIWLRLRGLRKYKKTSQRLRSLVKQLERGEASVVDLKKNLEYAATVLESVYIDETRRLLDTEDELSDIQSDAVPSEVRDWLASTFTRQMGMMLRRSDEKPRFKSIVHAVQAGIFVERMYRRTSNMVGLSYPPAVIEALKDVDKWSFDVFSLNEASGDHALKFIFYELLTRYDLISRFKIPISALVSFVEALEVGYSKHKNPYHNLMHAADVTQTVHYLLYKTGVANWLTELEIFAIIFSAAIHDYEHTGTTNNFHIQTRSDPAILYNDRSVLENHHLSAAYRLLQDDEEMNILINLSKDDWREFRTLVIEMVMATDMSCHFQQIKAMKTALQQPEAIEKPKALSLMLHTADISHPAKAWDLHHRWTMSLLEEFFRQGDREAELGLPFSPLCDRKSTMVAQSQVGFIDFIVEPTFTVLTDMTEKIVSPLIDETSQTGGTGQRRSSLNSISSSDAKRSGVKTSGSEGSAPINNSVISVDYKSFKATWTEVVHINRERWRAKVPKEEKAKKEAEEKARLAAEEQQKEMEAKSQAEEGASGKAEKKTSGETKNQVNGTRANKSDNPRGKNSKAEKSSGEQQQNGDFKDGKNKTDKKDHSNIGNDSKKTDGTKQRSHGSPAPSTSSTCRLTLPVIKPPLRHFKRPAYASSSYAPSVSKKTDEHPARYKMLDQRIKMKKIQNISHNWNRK
Sequence of High affinity 3',5'-cyclic-AMP phosphodiesterase 7A (Q13946 whole entry): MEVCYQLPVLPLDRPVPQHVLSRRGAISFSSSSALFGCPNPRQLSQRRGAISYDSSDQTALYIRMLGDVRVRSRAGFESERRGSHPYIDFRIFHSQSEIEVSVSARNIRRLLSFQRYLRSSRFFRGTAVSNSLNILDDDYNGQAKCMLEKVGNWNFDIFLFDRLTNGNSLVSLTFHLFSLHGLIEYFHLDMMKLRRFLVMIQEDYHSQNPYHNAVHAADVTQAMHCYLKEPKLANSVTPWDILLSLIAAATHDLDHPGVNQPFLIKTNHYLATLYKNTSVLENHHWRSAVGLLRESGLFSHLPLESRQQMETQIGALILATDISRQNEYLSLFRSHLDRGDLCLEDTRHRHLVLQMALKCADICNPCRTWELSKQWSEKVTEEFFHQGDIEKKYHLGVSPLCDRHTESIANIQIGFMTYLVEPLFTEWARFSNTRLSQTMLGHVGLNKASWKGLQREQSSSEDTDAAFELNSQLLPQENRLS
Sequence of High affinity cAMP-specific and IBMX-insensitive 3',5'-cyclic phosphodiesterase 8A (O60658 whole entry): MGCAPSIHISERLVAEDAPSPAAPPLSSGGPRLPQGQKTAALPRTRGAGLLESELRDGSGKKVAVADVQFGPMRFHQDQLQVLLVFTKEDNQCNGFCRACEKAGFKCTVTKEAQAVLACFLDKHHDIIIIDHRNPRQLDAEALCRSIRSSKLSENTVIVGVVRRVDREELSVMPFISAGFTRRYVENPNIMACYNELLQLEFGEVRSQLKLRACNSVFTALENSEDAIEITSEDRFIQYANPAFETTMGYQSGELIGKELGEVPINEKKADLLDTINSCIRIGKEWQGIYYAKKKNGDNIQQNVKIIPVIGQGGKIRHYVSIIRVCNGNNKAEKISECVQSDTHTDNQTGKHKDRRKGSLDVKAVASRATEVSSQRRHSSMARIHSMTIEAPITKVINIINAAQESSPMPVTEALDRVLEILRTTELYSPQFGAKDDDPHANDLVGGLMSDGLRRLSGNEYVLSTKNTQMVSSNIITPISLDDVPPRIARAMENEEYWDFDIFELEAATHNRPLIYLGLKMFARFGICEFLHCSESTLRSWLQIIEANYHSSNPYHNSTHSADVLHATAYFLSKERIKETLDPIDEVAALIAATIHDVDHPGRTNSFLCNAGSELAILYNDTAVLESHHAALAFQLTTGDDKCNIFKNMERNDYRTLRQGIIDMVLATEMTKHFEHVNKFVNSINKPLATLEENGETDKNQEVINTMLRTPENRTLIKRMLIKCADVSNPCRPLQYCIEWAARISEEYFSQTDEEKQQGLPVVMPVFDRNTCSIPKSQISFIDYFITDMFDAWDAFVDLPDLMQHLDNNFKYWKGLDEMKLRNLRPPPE
Sequence of High affinity cGMP-specific 3',5'-cyclic phosphodiesterase 9A (O76083 whole entry): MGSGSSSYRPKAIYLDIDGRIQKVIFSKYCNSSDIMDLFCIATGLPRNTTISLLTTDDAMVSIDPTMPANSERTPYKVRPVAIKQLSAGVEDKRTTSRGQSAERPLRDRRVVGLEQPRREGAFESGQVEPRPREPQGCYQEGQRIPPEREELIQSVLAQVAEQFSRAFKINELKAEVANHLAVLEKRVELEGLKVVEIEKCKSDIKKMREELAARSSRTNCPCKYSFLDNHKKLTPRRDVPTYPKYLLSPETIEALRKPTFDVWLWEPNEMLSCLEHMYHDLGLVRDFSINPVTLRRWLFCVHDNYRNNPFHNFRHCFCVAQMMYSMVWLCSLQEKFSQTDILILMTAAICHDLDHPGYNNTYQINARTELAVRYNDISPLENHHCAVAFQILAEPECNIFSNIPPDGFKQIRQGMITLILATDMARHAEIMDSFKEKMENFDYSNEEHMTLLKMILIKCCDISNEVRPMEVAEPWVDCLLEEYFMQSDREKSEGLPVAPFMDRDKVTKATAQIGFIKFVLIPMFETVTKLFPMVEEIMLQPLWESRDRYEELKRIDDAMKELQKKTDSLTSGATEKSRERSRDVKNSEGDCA
Sequence of 3',5'-cyclic-AMP phosphodiesterase 4D (Q08499 whole entry): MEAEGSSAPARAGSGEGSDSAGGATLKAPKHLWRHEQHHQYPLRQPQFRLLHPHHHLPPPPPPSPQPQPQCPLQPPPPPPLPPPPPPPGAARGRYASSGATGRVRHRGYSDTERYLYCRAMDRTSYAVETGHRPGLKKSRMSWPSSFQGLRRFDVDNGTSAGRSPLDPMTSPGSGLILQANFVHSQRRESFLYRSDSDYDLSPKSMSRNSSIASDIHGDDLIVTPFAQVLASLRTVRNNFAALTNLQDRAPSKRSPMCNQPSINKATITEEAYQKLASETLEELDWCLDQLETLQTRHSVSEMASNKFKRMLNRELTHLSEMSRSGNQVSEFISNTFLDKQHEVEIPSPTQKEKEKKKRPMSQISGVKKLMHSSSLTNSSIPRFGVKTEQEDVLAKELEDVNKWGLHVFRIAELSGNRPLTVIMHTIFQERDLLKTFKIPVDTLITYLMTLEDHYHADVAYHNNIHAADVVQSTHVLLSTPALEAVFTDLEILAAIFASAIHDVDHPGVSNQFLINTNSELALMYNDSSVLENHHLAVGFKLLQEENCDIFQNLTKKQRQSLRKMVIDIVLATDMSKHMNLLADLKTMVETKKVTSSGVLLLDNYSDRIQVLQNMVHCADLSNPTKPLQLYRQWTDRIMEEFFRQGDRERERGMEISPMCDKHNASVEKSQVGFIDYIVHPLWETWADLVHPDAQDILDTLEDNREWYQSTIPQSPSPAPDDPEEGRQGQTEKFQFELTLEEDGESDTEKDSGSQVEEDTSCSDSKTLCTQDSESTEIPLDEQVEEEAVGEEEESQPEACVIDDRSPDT

Question: With `COc1ccc2c(N3C[C@@H](Cl)[C@@H]4OC[C@@H](OCc5ccccc5)[C@@H]43)ncnc2c1OC` as the compound, how does the IC50 [1] read?
Answer: The IC50 was 4660 nM.

Question: And the IC50 [2]?
Answer: The IC50 was 2820 nM.

Question: And the IC50 [3]?
Answer: The IC50 was 573 nM.

Question: And the inhibition [4]?
Answer: Its inhibition is 27%.

Question: With `COCc1nc2c([nH]1)c(=O)n(C)c(=O)n2CC(C)C` as the compound, how does the IC50 [5] read?
Answer: Its IC50 is 8000 nM.

Question: And the IC50 [6]?
Answer: The IC50 was 240 nM.

Question: And the IC50 [7]?
Answer: Its IC50 is 10000 nM.

Question: With `CCCc1nn(C)c2c(=O)[nH]c(-c3cc(S(=O)(=O)N4CCN(C)CC4)ccc3OCC)nc12` as the compound, how does the IC50 [5] read?
Answer: Its IC50 is 396 nM.

Question: With `Cn1c(=O)c2c(ncn2C)n(C)c1=O` [CAFFEINE] as the compound, how does the IC50 [5] read?
Answer: Its IC50 is 479000 nM.

Question: For `Cn1c(=O)c2c(Nc3ccccc3)n(Cc3ccc(-c4cccc(F)n4)cc3)nc2n(CC2CC2)c1=O`, which IC50 [8] is on record?
Answer: The IC50 was 3.8 nM.

Question: What about the half-life [9] of the same compound?
Answer: The half-life was 4.5 min.

Question: For `COc1cc2ncnc(N3C[C@@H](OO)[C@@H]4OC[C@@H](OC(C)=O)[C@@H]43)c2cc1OC`, which IC50 [3] is on record?
Answer: The IC50 was 2200 nM.

Question: With `COCCOC(=O)C1=C(C)NC(C)=C(C(=O)OC(C)C)C1c1cccc([N+](=O)[O-])c1` (stereo not given) [NIMODIPINE] as the compound, how does the IC50 [1] read?
Answer: Its IC50 is 2000 nM.

Question: Which IC50 [10] does the source give for `O=c1c2c(Cc3ccccc3)n[nH]c2c2cccnc2n1-c1ccccc1` here?
Answer: Its IC50 is 32 nM.

Question: And the IC50 [11]?
Answer: The IC50 was 790 nM.

Question: With `CCOC(=O)C1=C[C@]2(CC)CCCN3CCc4c(n1c1ccccc41)[C@@H]32` [VINPOCETINE] as the compound, how does the IC50 [5] read?
Answer: The IC50 was 30000 nM.

Question: For `COc1ccc(Cn2c(=O)n3ncnc3c3cc(CN4CCCOCC4)sc32)cc1`, which IC50 [11] is on record?
Answer: Its IC50 is < 100 nM.

Question: For `C[C@@H](Nc1nc2c(cnn2C(C)(C)C)c(=O)n1Cc1ccc(F)cc1)c1ccc(Cl)cc1`, which IC50 [5] is on record?
Answer: Its IC50 is 2.9 nM.

Question: And the IC50 [12]?
Answer: Its IC50 is > 10000 nM.

Question: What about the half-life [9] of the same compound?
Answer: Its half-life is 15.8 min.

Question: And the IC50 [13]?
Answer: The IC50 was > 10000 nM.

Question: What about the IC50 [14] of the same compound?
Answer: The IC50 was > 10000 nM.

Question: Which Ki [15] does the source give for `CN1C(=O)c2c(nn(Cc3ccc(-c4cccc(F)n4)cc3)c2Nc2ccccc2)N2C1=N[C@@H]1CCC[C@@H]12` [LENRISPODUN PHOSPHATE] here?
Answer: Its Ki is 0.058 nM.

Question: Which IC50 [3] does the source give for `COc1cc2ncnc(N3C[C@@H](Cl)[C@@H]4OC[C@@H](OC)[C@@H]43)c2cc1OC` here?
Answer: The IC50 was 2400 nM.

Question: Which IC50 [5] does the source give for `C[C@@H](Nc1nc2c(cnn2C2CCCC2)c(=O)[nH]1)c1ccc(Cl)cc1` here?
Answer: Its IC50 is 80 nM.

Question: And the IC50 [16]?
Answer: Its IC50 is 58 nM.

Question: What does the source list for `Cn1c(=O)c2c(Nc3ccc(F)cc3)n(Cc3ccc(S(C)(=O)=O)cc3)nc2n(CC2CC2)c1=O`?
Answer: IC50 [8]: 21 nM; IC50 [17]: 1500 nM; half-life [9]: 28.5 min; IC50 [18]: 8520 nM; IC50 [13]: > 2500 nM; IC50 [19]: > 10000 nM

Question: What does the source list for `CNc1ncnc2c1ncn2Cc1ccccc1F` [BW-A78U]?
Answer: Ki [15]: 3700 nM; IC50 [7]: 6500 nM; Ki [20]: 35000 nM
